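Five compound concentrations were applied to cells in 96-well plates for 48 hours; endpoints were derived by simple linear interpolation of the resulting dose-response curve. TGI is the concentration that stops growth completely.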
Assays:
Assay in all cases: NCI-60 cell line screen, 48 h
[1] = test system: 786-0 renal
[2] = test system: A498 renal
[3] = test system: A549 NSCLC
[4] = test system: ACHN renal
[5] = test system: CAKI-1 renal
[6] = test system: CCRF-CEM leukemia
[7] = test system: COLO 205 colon
[8] = test system: DU-145 prostate
[9] = test system: EKVX NSCLC
[10] = test system: HCT-116 colon
[11] = test system: HCT-15 colon
[12] = test system: HL-60(TB) leukemia
[13] = test system: HOP-62 NSCLC
[14] = test system: HOP-92 NSCLC
[15] = test system: HS 578T breast
[16] = test system: HT29 colon
[17] = test system: IGROV1 ovarian
[18] = test system: K-562 leukemia
[19] = test system: KM12 colon
[20] = test system: LOX IMVI melanoma
[21] = test system: M14 melanoma
[22] = test system: MALME-3M melanoma
[23] = test system: MCF7 breast
[24] = test system: MDA-MB-231 breast
[25] = test system: MDA-MB-435
[26] = test system: MDA-N
[27] = test system: MOLT-4 leukemia
[28] = test system: NCI-H226 lung
[29] = test system: NCI-H23 lung
[30] = test system: NCI-H460 lung
[31] = test system: NCI-H522 lung
[32] = test system: NCI/ADR-RES ovarian
[33] = test system: OVCAR-3 ovarian
[34] = test system: OVCAR-4 ovarian
[35] = test system: OVCAR-5 ovarian
[36] = test system: OVCAR-8 ovarian
[37] = test system: PC-3 prostate
[38] = test system: RPMI-8226 leukemia
[39] = test system: RXF 393 renal
[40] = test system: SF-268 CNS
[41] = test system: SF-295 CNS
[42] = test system: SF-539 CNS
[43] = test system: SK-MEL-2 melanoma
[44] = test system: SK-MEL-28 melanoma
[45] = test system: SK-MEL-5 melanoma
[46] = test system: SK-OV-3 ovarian
[47] = test system: SN12C renal
[48] = test system: SNB-19 CNS
[49] = test system: SNB-75 CNS
[50] = test system: SR leukemia
[51] = test system: SW-620 colon
[52] = test system: T-47D breast
[53] = test system: TK-10 renal
[54] = test system: U251 CNS
[55] = test system: UACC-257 melanoma
[56] = test system: UACC-62 melanoma
[57] = test system: UO-31 renal

Measured: TGI

CC1(CCC(=O)OC2CCCCC2)OCCO1
> 100 µM: all assays above
